Results reported in patent publication US10829483B2, “Thiophene, manufacturing method thereof, and pharmaceutical application of same” (CSTONE PHARMACEUTICAL (SUZHOU) CO., LTD., priority 2016, dated 2020).

What follows are molecules tested against URAT-1 (uric acid transporter) (Homo sapiens (Human), UniProt Q96S37) (assay: Inhibition of 14C uric acid transport by HEK293 cell line stably transfected with the URAT-1 gene). Conditions: URAT-1 (HEK293) cells; 14C-labelled uric acid 50 um, 10 min at 37° C.; read-out: IC50 (inhibition against URAT-1).
Chain of URAT-1 (uric acid transporter) (Q96S37 whole entry): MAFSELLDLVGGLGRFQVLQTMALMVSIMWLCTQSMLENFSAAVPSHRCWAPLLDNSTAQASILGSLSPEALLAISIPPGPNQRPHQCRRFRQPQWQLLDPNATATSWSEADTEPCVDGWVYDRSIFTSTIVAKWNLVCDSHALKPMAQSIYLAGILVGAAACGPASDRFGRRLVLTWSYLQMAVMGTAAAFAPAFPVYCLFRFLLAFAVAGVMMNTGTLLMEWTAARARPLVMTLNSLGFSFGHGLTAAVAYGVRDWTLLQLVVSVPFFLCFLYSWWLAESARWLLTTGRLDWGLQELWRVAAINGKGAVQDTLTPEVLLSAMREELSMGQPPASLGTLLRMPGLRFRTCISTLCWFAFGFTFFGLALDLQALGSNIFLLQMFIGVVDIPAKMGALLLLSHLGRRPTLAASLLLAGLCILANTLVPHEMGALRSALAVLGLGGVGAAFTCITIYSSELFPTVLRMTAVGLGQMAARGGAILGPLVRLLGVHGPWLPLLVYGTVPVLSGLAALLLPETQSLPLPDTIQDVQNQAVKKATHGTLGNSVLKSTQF
Format: cell-based
Experimental: Determination of the IC50 value of the inhibitory activity of the compound against uric acid reabsorption by the HEK293 cell line stably transfected with the URAT-1 (uric acid transporter) gene.
URAT-1 (HEK293) cell line: the HEK293 cell line stably transfected with the URAT-1 gene
cell culture medium: DMEM culture medium added 10% fetal bovine serum (FBS), 1% sodium pyruvate and […] G418.
Uric acid solution labeled by ^14C.
1) the supernatant of cell culture was aspirated, and cells was washed with 10 mL PBS.
2) preheated trypsin was added into the cell culture flask, and the cell culture flask was rotated to make trypsin covering onto the bottom of cell culture flask equably.
3) the cells were suspended with 10-15 mL of culture medium in each T150 flask, took 0.1 mL of cell suspension and diluted it with two volumes of trypan blue solution to count the cells.
4) cells were diluted to 2.5×10^5/mL with the culture medium, and the diluted cells were added into a rat tail collagen-coated 24-well plate (800 uL/well, 2×10^5 cells/well). The plate was incubated overnight at 37° C. in a 5% CO2 incubator.
1) cells were seeded into 24-well plate, and supernatant was discarded after 16-18 h. The cells were washed twice using 600 ul HBSS buffer.
2) HBSS buffer was removed and 180 ul of HBSS buffer was added into each well again.
1) compounds were dissolved into 100% DMSO, and diluted into 6 concentration points by 3-fold dilution, or into 2 concentration points by 10-fold dilution, and the highest starting concentration was 50 mM.
2) 5 ul DMSO solution in step 1) was transferred into 120 ul of HBSS buffer to make a 25-fold dilution.
3) 10 ul diluted solution in step 2) was added into 24-well plate, and the plate was incubated for 15 min at 37° C. in a 5% CO2 incubator. The final concentration of DMSO is 0.2%. The control well contained 0.2% DMSO without compound.
^14C-labelled uric acid was diluted and added into plate, and the final concentration is 50 um. The plate was incubated for 10 min at 37° C. in a 5% CO2 incubator. After supernatant was discarded, cells were washed with HBSS buffer twice. Cells was lysed with 0.1M NaOH. And then cell lysis solution was collected into liquid scintillation tube and added with liquid scintillation solution. The signal was read by liquid scintillation counter Tri-Carb. e) data analysis URAT-1 inhibition by the treatment of the compounds was analyzed by calculating the percentage of inhibition. Non-linear fitting analysis of percent inhibition (inh %) data using GraphPad Prism software to generate the IC50 value.

Row | SMILES | IC50 [µM]
1 | O=C(O)CSc1nnc(Br)n1-c1sc(C2CC2)c2c1CCCC2 [WX001] | < 2
2 | O=C(O)CSc1nncn1-c1sc(C2CC2)c2c1CCCC2 [WX002] | > 20
3 | O=C(O)CSc1nnc(Br)n1-c1sc(-c2ccccc2)c2c1CCCC2 [WX003] | 2 to 20
4 | CC(Sc1nnc(Br)n1-c1sc(-c2ccccc2)c2c1CCCC2)C(=O)O (centres unmarked) [WX004] | 2 to 20
5 | CC(C)(Sc1nnc(Br)n1-c1sc(-c2ccccc2)c2c1CCCC2)C(=O)O [WX005] | < 2
6 | O=C(O)CSc1nnc(Br)n1-c1sc(-c2ccc(F)cc2)c2c1CCCC2 [WX006] | 2 to 20
7 | O=C(O)CSc1nnc(Br)n1-c1sc(-c2cccc(F)c2)c2c1CCCC2 [WX007] | 2 to 20
8 | O=C(O)CSc1nnc(Br)n1-c1sc(-c2ccc(F)c(F)c2)c2c1CCCC2 [WX008] | 2 to 20
9 | O=C(O)CSc1nnc(Br)n1-c1sc(-c2cc(F)cc(F)c2)c2c1CCCC2 [WX009] | < 2
10 | CC(C)(Sc1nnc(Br)n1-c1sc(-c2ccc(C(F)(F)F)cc2)c2c1CCCC2)C(=O)O [WX010] | 2 to 20
11 | CC(C)(Sc1nnc(Br)n1-c1sc(-c2ccc(Cl)c(Cl)c2)c2c1CCCC2)C(=O)O [WX011] | < 2
12 | COc1ccc(-c2sc(-n3c(Br)nnc3SC(C)C(=O)O)c3c2CCCC3)cc1Br (centres unmarked) [WX012] | < 2
13 | CC(C)(Sc1nnc(Br)n1-c1sc(-c2ccc(F)c(F)c2)c2c1CCCC2)C(=O)O [WX013] | < 2
14 | CC(Sc1nnc(Br)n1-c1sc(-c2ccc(C(F)(F)F)cc2)c2c1CCCC2)C(=O)O (centres unmarked) [WX014] | < 2
15 | CC(Sc1nnc(Br)n1-c1sc(-c2ccc(S(C)(=O)=O)cc2)c2c1CCCC2)C(=O)O (centres unmarked) [WX015] | > 20
16 | COc1ccc(-c2sc(-n3c(Br)nnc3SC(C)C(=O)O)c3c2CCCC3)cc1 (centres unmarked) [WX016] | 2 to 20
17 | COc1ccc(-c2sc(-n3c(Br)nnc3SCC(=O)O)c3c2CCCC3)cc1 [WX017] | 2 to 20
18 | CC(Sc1nnc(Br)n1-c1sc(-c2ccc(Cl)c(Cl)c2)c2c1CCCC2)C(=O)O (centres unmarked) [WX018] | 2 to 20
19 | O=C(O)CSc1nnc(Br)n1-c1sc(-c2ccc(Cl)c(Cl)c2)c2c1CCCC2 [WX019] | 2 to 20
20 | O=C(O)CSc1nncn1-c1sc(-c2cccc(F)c2)c2c1CCCC2 [WX020] | > 20
21 | O=C(O)CSc1nncn1-c1sc(-c2ccc(F)c(F)c2)c2c1CCCC2 [WX021] | > 20
22 | O=C(O)CSc1nncn1-c1sc(-c2cc(F)cc(F)c2)c2c1CCCC2 [WX022] | > 20

Row | SMILES | IC50 [µM]
23 | CN(C)c1ccc(-c2sc(-n3cnnc3SC(C)(C)C(=O)O)c3c2CCCC3)cc1Br [WX023] | 2 to 20
24 | CNc1c(Br)cc(-c2sc(-n3cnnc3SC(C)(C)C(=O)O)c3c2CCCC3)cc1Br [WX024] | 2 to 20
25 | CC(C)(Sc1nnc(Br)n1-c1sc(-c2ccncn2)c2c1CCCC2)C(=O)O [WX025] | > 20
26 | CC(Sc1nnc(Br)n1-c1sc(C2CC2)c2c1CCCC2)C(=O)O (centres unmarked) [WX026] | < 2
27 | CC(C)(Sc1nnc(Br)n1-c1sc(C2CC2)c2c1CCCC2)C(=O)O [WX027] | < 2
28 | CC(C)C(Sc1nnc(Br)n1-c1sc(C2CC2)c2c1CCCC2)C(=O)O (centres unmarked) [WX028] | < 2
29 | O=C(O)C1(Sc2nnc(Br)n2-c2sc(C3CC3)c3c2CCCC3)CCC1 [WX029] | < 2
30 | O=C(O)C1(Sc2nnc(Br)n2-c2sc(C3CC3)c3c2CCCC3)CCCC1 [WX030] | < 2
31 | C[C@@H](Sc1nnc(Br)n1-c1sc(C2CC2)c2c1CCCC2)C(=O)O [WX031] | < 2
32 | C[C@H](Sc1nnc(Br)n1-c1sc(C2CC2)c2c1CCCC2)C(=O)O [WX032] | < 2
33 | CC(C)(Sc1nnc(Br)n1-c1sc(C2CC2)c2c1CCC(F)(F)C2)C(=O)O [WX033] | < 2
34 | CC1(C)CCc2c(C3CC3)sc(-n3c(Br)nnc3SC(C)(C)C(=O)O)c2C1 [WX034] | < 2
35 | CC1(C)CCc2c(-n3c(Br)nnc3SC(C)(C)C(=O)O)sc(C3CC3)c2C1 [WX035] | < 2
36 | CC(Sc1nncn1-c1sc(C2CC2)c2c1CCCC2)C(=O)O (centres unmarked) [WX036] | > 20
37 | O=C(O)CSc1nnc(Br)n1-c1sc(-c2ccccc2)c2c1CCC2 [WX037] | > 20
38 | O=C(O)CSc1nnc(Br)n1-c1sc(-c2ccc(F)cc2)c2c1CCC2 [WX038] | > 20
39 | O=C(O)CSc1nnc(Br)n1-c1sc(-c2cccc(F)c2)c2c1CCC2 [WX039] | > 20
40 | O=C(O)CSc1nnc(Br)n1-c1sc(-c2ccc(Cl)cc2)c2c1CCC2 [WX040] | > 20
41 | O=C(O)CSc1nnc(Br)n1-c1sc(-c2ccc(Cl)c(Cl)c2)c2c1CCC2 [WX041] | > 20
42 | Cc1ccc(-c2sc(-n3c(Br)nnc3SCC(=O)O)c3c2CCC3)cc1 [WX042] | > 20
43 | COc1ccc(-c2sc(-n3c(Br)nnc3SCC(=O)O)c3c2CCC3)cc1 [WX043] | > 20
44 | O=C(O)CSc1nnc(Br)n1-c1sc(-c2ccc(C(F)(F)F)cc2)c2c1CCC2 [WX044] | > 20

Results, then the molecule that gave them:

Row | IC50 [µM] | SMILES
45 | > 20 | O=C(O)CSc1nnc(Br)n1-c1sc(-c2cccc(Cl)c2)c2c1CCC2 [WX045]
46 | > 20 | CC(C)(C)c1ccc(-c2sc(-n3c(Br)nnc3SCC(=O)O)c3c2CCC3)cc1 [WX046]
47 | > 20 | Cn1cc(-c2sc(-n3c(Br)nnc3SCC(=O)O)c3c2CCC3)cn1 [WX047]
48 | > 20 | CC(C)(C)c1ccc(-c2sc(-n3cnnc3SCC(=O)O)c3c2CCC3)cc1 [WX048]
49 | > 20 | COc1ccc(-c2sc(-n3cnnc3SCC(=O)O)c3c2CCC3)cc1 [WX049]
50 | > 20 | Cc1ccc(-c2sc(-n3cnnc3SCC(=O)O)c3c2CCC3)cc1 [WX050]
51 | > 20 | O=C(O)CSc1nncn1-c1sc(-c2ccc(C(F)(F)F)cc2)c2c1CCC2 [WX051]
52 | > 20 | O=C(O)CSc1nncn1-c1sc(-c2cccc(Cl)c2)c2c1CCC2 [WX052]
53 | > 20 | CN(C)c1ccc(-c2sc(-n3cnnc3SCC(=O)O)c3c2CCC3)cc1 [WX053]
54 | > 20 | O=C(O)CSc1nncn1-c1sc(-c2ccc(Cl)cc2)c2c1CCC2 [WX054]
55 | > 20 | O=C(O)CSc1nncn1-c1sc(-c2ccc(Cl)c(Cl)c2)c2c1CCC2 [WX055]
56 | > 20 | Cn1cc(-c2sc(-n3cnnc3SCC(=O)O)c3c2CCC3)cn1 [WX056]
57 | 2 to 20 | CN(C)c1ccc(-c2sc(-n3cnnc3SCC(=O)O)c3c2CCC3)cc1Br [WX057]
58 | > 20 | O=C(O)CSc1nnc(Br)n1-c1sc(C2CC2)c2c1CCC2 [WX058]
59 | < 2 | O=C(O)C1(Sc2nnc(Br)n2-c2sc(C3CC3)c3c2CCC3)CCC1 [WX059]
60 | < 2 | O=C(O)C1(Sc2nnc(Br)n2-c2sc(C3CC3)c3c2CCC3)CCCC1 [WX060]
61 | < 2 | CC(Sc1nnc(Br)n1-c1sc(C2CC2)c2c1CCC2)C(=O)O (centres unmarked) [WX061]
62 | < 2 | CC(C)(Sc1nnc(Br)n1-c1sc(C2CC2)c2c1CCC2)C(=O)O [WX062]
63 | < 2 | CCC(C)(Sc1nnc(Br)n1-c1sc(C2CC2)c2c1CCC2)C(=O)O (centres unmarked) [WX063]
64 | 2 to 20 | O=C(O)C(Sc1nnc(Br)n1-c1sc(C2CC2)c2c1CCC2)c1ccccc1 (centres unmarked) [WX064]
65 | < 2 | CC1(C)Cc2c(C3CC3)sc(-n3c(Br)nnc3SC(C)(C)C(=O)O)c2C1 [WX065]
66 | < 2 | CC1(C)Cc2c(C3CC3)sc(-n3c(Br)nnc3SC3(C(=O)O)CCC3)c2C1 [WX066]
67 | < 2 | CC(C)(Sc1nnc(Br)n1-c1cc(Cl)c(C2CC2)s1)C(=O)O [WX067]
68 | 2 to 20 | O=C(O)C1(Sc2nnc(Br)n2-c2cc(Cl)c(C3CC3)s2)CCC1 [WX068]
